In US9963474B2, “Mitochondria-targeted dicarbonyl sequestering compounds” (MEDICAL RESEARCH COUNCIL, priority 2013, dated 2018):

What was measured:
[1] = Partition coefficients between PBS and octan-1-ol; format: physicochemical; conditions: means ± SE of 3 determinations
Experimental: (§1) RP-HPLC was performed using a Gilson 321 pump with a C18 column (Jupiter 300 Å, Phenomenex) with a Widepore C18 guard column (Phenomenex). Samples (1 ml) were injected through a 0.22 μm PVDF filter (Millex, Millipore). HPLC buffer A [0.1% TFA in water] and HPLC buffer B (90% acetonitrile and 0.1% TFA) were used and a gradient was run at 1 ml/min at room temperature as follows: 0-2 min—5% B; 2-17 min—5-100% B; 17-19 min—100% B; 19-22 min—100-5% B. Peaks were detected by absorbance at 220 nm (UV/Vis 151, Gilson) and by fluorescence (excitation and emission wavelengths of 344 and 433 nm; RF-10AXL, Shimadzu). Partition coefficients between PBS and octan-1-ol were determined as previously described.

[2] = Stability of compounds assessed by RP-HPLC; format: physicochemical; conditions: 37° C., one week, RP-HPLC
Experimental: as §1
The syntheses of MitoG, its predicted quinoxaline products upon reaction with methylglyoxal and glyoxal, and their deuterated versions are summarized in FIG. 2. As expected, the spectrum of MitoG was a summation of those of the phenylenediamine, hexyloxyphenylenediamine (HP), and a simple alkylTPP salt.
The expected products of the reaction of MitoG with methylglyoxal (MQE) and glyoxal (QE) were synthesized and have UV/Vis absorption spectra distinct from that of MitoG (FIG. 3B). Both QE and MQE were fluorescent, while MitoG was not (FIG. 3C). The three compounds were resolved by RP-HPLC (FIG. 3D) although the MQE regioisomers (MQE1, MQE2; FIG. 1B) were not distinguished. Both MQE and QE were stable after one week at 37° C. as assessed by RP-HPLC (data not shown). It was concluded that MitoG is sufficiently stable for biological experiments involving trapping of glyoxal and methylglyoxal within mitochondria in cells and in vivo, and the reaction products MQE and QE were both robustly stable for chemical isolation and subsequent LC-MS/MS analyses.

[3] = 25° C., literature [49]; cited from earlier work

Cc1cnc2cc(OCCCCCC[P+](c3ccccc3)(c3ccccc3)c3ccccc3)ccc2n1.O=C([O-])C(F)(F)F [MQE, (6-(6-(2-Methyl-quinoxalinyloxy))hexyl)triphenylphosphonium trifluoroacetate]
Partition coefficient [1]: 12.3 ± 0.5 | stability after one week [2]: stable

O=C([O-])C(F)(F)F.c1ccc([P+](CCCCCCOc2ccc3nccnc3c2)(c2ccccc2)c2ccccc2)cc1 [QE, (6-(6-Quinoxalinyloxy)hexyl)triphenylphosphonium trifluoroacetate]
logD ([1]; octan-1-ol/PBS, read-out: Partition coefficient (converted)): 1.13 | stability after one week [2]: stable

Nc1ccccc1N [o-phenylenediamine]
rate constant for reaction with methylglyoxal, reported value [3]: 1.7 ± 0.3 M⁻¹ s⁻¹
